In PubChem BioAssay (NCI):
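Abbreviation: GI50, concentration required for 50% inhibition of growth. TGI marks complete inhibition of growth.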

Legend:
Assay in all cases: NCI anticancer screen, dose series, 384-well format
786-0 renal = system: 786-0 renal
A498 renal = system: A498 renal
A549 NSCLC = system: A549 NSCLC
ACHN renal = system: ACHN renal
BT-549 breast = system: BT-549 breast
CAKI-1 renal = system: CAKI-1 renal
CCRF-CEM leukemia = system: CCRF-CEM leukemia
COLO 205 colon = system: COLO 205 colon
DU-145 prostate = system: DU-145 prostate
EKVX NSCLC = system: EKVX NSCLC
HCC-2998 colon = system: HCC-2998 colon
HCT-116 colon = system: HCT-116 colon
HCT-15 colon = system: HCT-15 colon
HL-60(TB) leukemia = system: HL-60(TB) leukemia
HOP-62 NSCLC = system: HOP-62 NSCLC
HOP-92 NSCLC = system: HOP-92 NSCLC
HS 578T breast = system: HS 578T breast
IGROV1 ovarian = system: IGROV1 ovarian
K-562 leukemia = system: K-562 leukemia
KM12 colon = system: KM12 colon
LOX IMVI melanoma = system: LOX IMVI melanoma
M14 melanoma = system: M14 melanoma
MALME-3M melanoma = system: MALME-3M melanoma
MCF7 breast = system: MCF7 breast
MDA-MB-231 breast = system: MDA-MB-231 breast
MDA-MB-435 melanoma = system: MDA-MB-435 melanoma
MDA-MB-468 breast = system: MDA-MB-468 breast
MOLT-4 leukemia = system: MOLT-4 leukemia
NCI-H226 lung = system: NCI-H226 lung
NCI-H23 lung = system: NCI-H23 lung
NCI-H322M lung = system: NCI-H322M lung
NCI-H460 NSCLC = system: NCI-H460 NSCLC
NCI-H522 lung = system: NCI-H522 lung
NCI/ADR-RES ovarian = system: NCI/ADR-RES ovarian
OVCAR-3 ovarian = system: OVCAR-3 ovarian
OVCAR-4 ovarian = system: OVCAR-4 ovarian
OVCAR-5 ovarian = system: OVCAR-5 ovarian
OVCAR-8 ovarian = system: OVCAR-8 ovarian
PC-3 prostate = system: PC-3 prostate
RPMI-8226 leukemia = system: RPMI-8226 leukemia
RXF 393 renal = system: RXF 393 renal
SF-268 CNS = system: SF-268 CNS
SF-295 CNS = system: SF-295 CNS
SF-539 CNS = system: SF-539 CNS
SK-MEL-2 melanoma = system: SK-MEL-2 melanoma
SK-MEL-28 melanoma = system: SK-MEL-28 melanoma
SK-MEL-5 melanoma = system: SK-MEL-5 melanoma
SK-OV-3 ovarian = system: SK-OV-3 ovarian
SN12C renal = system: SN12C renal
SNB-19 CNS = system: SNB-19 CNS
SNB-75 CNS = system: SNB-75 CNS
SR leukemia = system: SR leukemia
SW-620 colon = system: SW-620 colon
T-47D breast = system: T-47D breast
TK-10 renal = system: TK-10 renal
U251 glioblastoma = system: U251 glioblastoma
UACC-257 melanoma = system: UACC-257 melanoma
UACC-62 melanoma = system: UACC-62 melanoma
UO-31 renal = system: UO-31 renal

CCN1CCN(Cc2ccc(Nc3ncc(F)c(-c4cc(F)c5nc(C)n(C(C)C)c5c4)n3)nc2)CC1
GI50 ([…]-0 renal): 1.27 µM | TGI (786-0 renal): 7.97 µM | GI50 (A498 renal): 0.312 µM | TGI (A498 renal): 1.47 µM | GI50 (A549 NSCLC): 2.12 µM | TGI (A549 NSCLC): 7.52 µM | GI50 (ACHN renal): 0.39 µM | TGI (ACHN renal): 10.6 µM | GI50 (BT-549 breast): 0.917 µM | TGI (BT-549 breast): 16.5 µM | GI50 (CAKI-1 renal): 0.285 µM | TGI (CAKI-1 renal): 14 µM | GI50 (CCRF-CEM leukemia): 0.33 µM | TGI (CCRF-CEM leukemia): 4.39 µM | GI50 (COLO 205 colon): 0.447 µM | TGI (COLO 205 colon): > 55.9 µM | GI50 (DU-145 prostate): 1.84 µM | TGI (DU-145 prostate): 9.15 µM | GI50 (EKVX NSCLC): 18 µM | TGI (EKVX NSCLC): > 62 µM | GI50 (HCC-2998 colon): 4.45 µM | GI50 (HCT-116 colon): 0.392 µM | TGI (HCT-116 colon): 1.87 µM | GI50 (HCT-15 colon): 0.531 µM | TGI (HCT-15 colon): 7.24 µM | GI50 (HL-60(TB) leukemia): 0.386 µM | TGI (HL-60(TB) leukemia): 6.82 µM | GI50 (HOP-62 NSCLC): 8.44 µM | TGI (HOP-62 NSCLC): > 56.8 µM | GI50 (HOP-92 NSCLC): > 81.8 µM | TGI (HOP-92 NSCLC): > 100 µM | GI50 (HS 578T breast): 2.43 µM | TGI (HS 578T breast): 19.4 µM | GI50 (IGROV1 ovarian): 4.43 µM | TGI (IGROV1 ovarian): > 28.1 µM | GI50 (K-562 leukemia): 1.11 µM | TGI (K-562 leukemia): 2.32 µM | GI50 (KM12 colon): 0.485 µM | TGI (KM12 colon): 6.5 µM | GI50 (LOX IMVI melanoma): 0.372 µM | TGI (LOX IMVI melanoma): 7.23 µM | GI50 (M14 melanoma): 0.684 µM | TGI (M14 melanoma): > 28 µM | GI50 (MALME-3M melanoma): 3.43 µM | TGI (MALME-3M melanoma): 13.6 µM | GI50 (MCF7 breast): 0.395 µM | TGI (MCF7 breast): 6.59 µM | GI50 (MDA-MB-231 breast): 0.749 µM | GI50 (MDA-MB-435 melanoma): > 15.5 µM | TGI (MDA-MB-435 melanoma): > 52.4 µM | GI50 (MDA-MB-468 breast): 1.18 µM | TGI (MDA-MB-468 breast): > 25.7 µM | GI50 (MOLT-4 leukemia): 0.127 µM | TGI (MOLT-4 leukemia): 0.981 µM | GI50 (NCI-H226 lung): 0.56 µM | TGI (NCI-H226 lung): 23 µM | GI50 (NCI-H23 lung): 1.74 µM | TGI (NCI-H23 lung): 7.68 µM | GI50 (NCI-H322M lung): 1.16 µM | TGI (NCI-H322M lung): 15.2 µM | GI50 (NCI-H460 NSCLC): 0.387 µM | TGI (NCI-H460 NSCLC): 1.82 µM | GI50 (NCI-H522 lung): 9.54 µM | TGI (NCI-H522 lung): > 33.1 µM | GI50 (NCI/ADR-RES ovarian): > 60.9 µM | TGI (NCI/ADR-RES ovarian): > 100 µM | GI50 (OVCAR-3 ovarian): 4.21 µM | TGI (OVCAR-3 ovarian): > 29.3 µM | TGI (OVCAR-4 ovarian): > 19.6 µM | GI50 (OVCAR-5 ovarian): 0.944 µM | TGI (OVCAR-5 ovarian): > 68.3 µM | GI50 (OVCAR-8 ovarian): 24.3 µM | TGI (OVCAR-8 ovarian): > 32.4 µM | GI50 (PC-3 prostate): 1.49 µM | TGI (PC-3 prostate): > 31.9 µM | GI50 (RPMI-8226 leukemia): 1.42 µM | TGI (RPMI-8226 leukemia): 8.38 µM | GI50 (RXF 393 renal): 5.84 µM | TGI (RXF 393 renal): 11.6 µM | GI50 (SF-268 CNS): 2 µM | TGI (SF-268 CNS): 19 µM | GI50 (SF-295 CNS): 6.95 µM | TGI (SF-295 CNS): > 34.2 µM | GI50 (SF-539 CNS): 1.26 µM | TGI (SF-539 CNS): 2.53 µM | GI50 (SK-MEL-2 melanoma): 16.8 µM | TGI (SK-MEL-2 melanoma): 30.5 µM | GI50 (SK-MEL-28 melanoma): 1.85 µM | TGI (SK-MEL-28 melanoma): > 33.3 µM | GI50 (SK-MEL-5 melanoma): 0.26 µM | TGI (SK-MEL-5 melanoma): > 23.3 µM | GI50 (SK-OV-3 ovarian): 3.31 µM | TGI (SK-OV-3 ovarian): > 32 µM | GI50 (SN12C renal): 6.7 µM | TGI (SN12C renal): > 32.9 µM | GI50 (SNB-19 CNS): 16 µM | TGI (SNB-19 CNS): > 33.6 µM | GI50 (SNB-75 CNS): 0.708 µM | TGI (SNB-75 CNS): 10.6 µM | GI50 (SR leukemia): 0.0577 µM | TGI (SR leukemia): 0.267 µM | GI50 (SW-620 colon): 0.366 µM | TGI (SW-620 colon): 1.81 µM | GI50 (T-47D breast): 23.7 µM | TGI (T-47D breast): > 68.5 µM | GI50 (TK-10 renal): 0.803 µM | TGI (TK-10 renal): > 27.6 µM | GI50 (U251 glioblastoma): 2.87 µM | TGI (U251 glioblastoma): > 29.6 µM | GI50 (UACC-257 melanoma): 4.74 µM | TGI (UACC-257 melanoma): > 32.1 µM | GI50 (UACC-62 melanoma): 2.4 µM | TGI (UACC-62 melanoma): > 26.9 µM | GI50 (UO-31 renal): 0.362 µM | TGI (UO-31 renal): > 19.1 µM
